Laboratory results: paper PMC7238130, “Improved Dissolution and Pharmacokinetics of Abiraterone through KinetiSol® Enabled Amorphous Solid Dispersions” (Pharmaceutics, 2020)
Values after ≈ are worked out from the molar mass of the structure shown.

Key:
[1] = cited from earlier work; for FaSSIF solubility (converted): conversion of the µM value
[2] = In vitro, non-sink, gastric transfer dissolution (0.01 N HCl then FaSSIF); assay type: physicochemical
Protocol: An in vitro, non-sink, gastric transfer dissolution method was developed to analyze the dissolution of abiraterone API, the generic abiraterone acetate tablets, the binary KSDs, to select ternary component for KSDs, as well as to analyze the dissolution of the ternary KSDs. For the dissolution analysis of abiraterone API and the binary and ternary KSDs, the samples (equivalent to 31 mg of abiraterone API) were loaded in an Erlenmeyer flask (dissolution vessel) containing 35 mL of 0.01N HCl (pH 2.0), placed in an incubator–shaker (Excella E24 (New Brunswick Scientific, Edison, NJ, USA)) set to 37 °C and a rotational speed of 180 rpm. After 30 min, 35 mL of FaSSIF (prepared in a 50 mM phosphate buffer at pH 6.8) was added to the dissolution vessel. At predetermined time points, samples were drawn from the dissolution vessel and centrifuged using an ultracentrifuge at 92,000 rpm for 90 s (Airfuge™, Beckman, Indianapolis, IN, USA). The supernatants were further diluted using the HPLC diluent and analyzed using the respective HPLC methods mentioned above. For the generic abiraterone acetate tablets, the whole tablet was analyzed, and the dissolution media volumes were scaled accordingly. For the selection of the ternary component, 35 mg of secondary polymer candidates were added in 35 mL of 0.01 N HCl (pH 2.0), and the dissolution of the binary KSD was conducted using the method described above. The area under the drug dissolution curve (AUDC) was calculated using the linear trapezoidal method.
For dissolution testing, we employed a two-stage, non-sink, gastric transfer dissolution method in which the sample is first exposed to acidic media, simulating fasted stomach content, followed by exposure to neutral-to-basic media, simulating fasted intestinal content.

[3] = set-up: method as in doi:10.1021/acs.jced.8b00566; conditions: cited from earlier work
[4] = set-up: method as in doi:10.1021/acs.jced.8b00566; conditions: cited from earlier work; remark: listed apart in the source

Row | Percent Rel. AUDC0.01 N HCl (Relative to Lot 5 KSD) ([2]; 0.01 N HCl stage, 35 mg secondary polymer added externally where stated) | Percent Rel. AUDCTotal (Relative to Lot 5 KSD) ([2]; 35 mg secondary polymer added externally to 35 mL 0.01 N HCl where stated) | Percent Rel. AUDCFaSSIF (Relative to Lot 5 KSD) ([2]; FaSSIF stage, 35 mg secondary polymer added externally where stated) | solubility ([2]; pH 6.8, FaSSIF stage of gastric transfer dissolution, read-out: average drug concentration (solubility) in FaSSIF media) | SMILES | FaSSIF solubility [1] | FaSSIF solubility (converted) [1] | water solubility [3] | BCS (Biopharmaceutical Classification System) class [4] | permeability [4]
1 | – | – | – | – | CC(=O)O[C@H]1CC[C@@]2(C)C(=CC[C@@H]3[C@@H]2CC[C@]2(C)C(c4cccnc4)=CC[C@@H]32)C1 [abiraterone acetate, Abiraterone acetate] | 64.6 ± 5.2 µM | ~ 25.29 µg/mL | – | – | –
2 | 1.8% | 8.4% | 46.2% | 11.3 µg/mL (≈ 32.4 µM) | C[C@]12CC[C@H](O)CC1=CC[C@@H]1[C@@H]2CC[C@]2(C)C(c3cccnc3)=CC[C@@H]12 [Abiraterone API, Abiraterone] | 12.7 ± 4.2 µM | ~ 4.43 µg/mL | 3.05 µg/mL (≈ 8.73 µM) | Class IV | low
